Where two headings read alike, the source gives them in different places.
Key:
TXA2 synthase = target: T1, TXA2 synthase (Homo sapiens, UniProt P24557); assay: Thromboxane Synthase Inhibition, In Vitro; type: biochemical; details: human platelet microsomes; for inhibition at 0.1 µM: at 10^-7 M
T1 construct: using microsomal fractions from human platelets as enzyme source; from tissue; host or cells: human platelets, microsomal fraction
T1 sequence (P24557 1-533): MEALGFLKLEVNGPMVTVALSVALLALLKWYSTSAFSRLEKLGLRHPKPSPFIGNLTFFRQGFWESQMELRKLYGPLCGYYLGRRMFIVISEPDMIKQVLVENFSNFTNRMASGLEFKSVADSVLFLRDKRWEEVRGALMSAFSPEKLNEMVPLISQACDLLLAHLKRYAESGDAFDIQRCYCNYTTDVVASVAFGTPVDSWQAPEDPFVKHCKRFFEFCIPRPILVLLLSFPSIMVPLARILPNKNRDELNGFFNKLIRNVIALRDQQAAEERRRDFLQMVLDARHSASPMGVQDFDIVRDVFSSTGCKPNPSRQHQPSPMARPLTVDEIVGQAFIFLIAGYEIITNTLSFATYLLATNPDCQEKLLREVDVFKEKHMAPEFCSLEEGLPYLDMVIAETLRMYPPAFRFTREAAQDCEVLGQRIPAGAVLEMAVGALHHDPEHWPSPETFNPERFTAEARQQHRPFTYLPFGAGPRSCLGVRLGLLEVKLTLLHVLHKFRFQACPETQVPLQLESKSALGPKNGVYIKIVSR
Protocol: TXA2 synthase activity is measured by following the conversion of ^14 C-prostaglandin endoperoxide (PGH2) to ^14 C-thromboxane A2 (TXA2) using microsomal fractions from human platelets as enzyme source. In the aqueous incubation medium, the TXA2 decomposes rapidly into TXB2. The amount of TXA2 synthase is adjusted so that under the conditions of the assay approximately 80-90% of the substrate, PGH2, is converted to product in control tubes. To prepare ^14 C--PGH2, ^14 C--AA (50-60 mCi/mmole; Rose Chem.) is incubated with sheep seminal vesicular gland microsomes for 1.5 minutes at 37° C. and then the ^14 C--PGH2 is extracted with diethylether, purified on columns of Sephadex LH-20 or silicic acid, and stored in acetone at -70° C. Incubations are done as follows. Sufficient ^14 C--PGH2 to yield a final substrate concentration of 10 μM (30,000 cpm) is added to the incubation tubes and then the acetone is removed under nitrogen. The tubes are placed in an ice bath and then 215 μl of ice cold phosphate buffered saline, 10 μl of ethanol (control) or of test drug in ethanol, and 25 μl of the microsomal suspension are added with mixing in that order as rapidly as possible. The tubes are incubated at 22° C. for 2 minutes, the reaction is stopped and then the radioactive products and the uncoverted PGH2 are extracted and analyzed by thin layer chromatography. […] The amount of ^14 C--PGH2 converted to products was used as a measure of TXA2 synthase activity. Inhibitors were tested initially at a final concentration of 100 μM. Results obtained with representative compounds of the present invention in this assay are summarized hereafter in Table I.

[1] = tested on: SRS-A-induced constriction of the guinea pig ileum; assay: Guinea Pig Ileum, In Vitro (inhibition of SRS-A-induced constriction); type: cell-based; details: Cavia porcellus; for IC50: SRS-A-induced constriction, in vitro, read-out: Guinea Pig Ileum, IC50
Protocol: The guinea pig ileum bioassay system has been described by Orange and Austen, Adv. Immunol. […] A 1.5 cm segment is removed from animals weighing 300-400 g. and suspended in an organ bath containing 10 ml. of Tyrodes solution with 10^-6 M atropine sulfate and 10^-6 M pyrilamine maleate. […] The SRS-A utilized in this screen is obtained by challenging chopped lung fragments from actively sensitized guinea pigs with egg albumin, in vitro. A dose-response curve to SRS-A challenge is established for the ileum. […] The drug concentration which inhibits, by 50%, the SRS-A-induced constriction of the guinea pig ileum is determined.

Δ^5 -Lipoxygenase = target: T2, Δ^5 -Lipoxygenase (Rattus norvegicus, UniProt P12527); assay: Δ^5 -Lipoxygenase Inhibition; type: biochemical; details: at 10^-5 M; RBL-1 cell supernatant
T2 construct: using rat basophil leukemia cells (RBL-1 cells) as the enzyme source; endogenous in cells; host or cells: RBL-1 (rat basophil leukemia) cells, 49,300×g supernatant of homogenate
T2 sequence (P12527 1-673): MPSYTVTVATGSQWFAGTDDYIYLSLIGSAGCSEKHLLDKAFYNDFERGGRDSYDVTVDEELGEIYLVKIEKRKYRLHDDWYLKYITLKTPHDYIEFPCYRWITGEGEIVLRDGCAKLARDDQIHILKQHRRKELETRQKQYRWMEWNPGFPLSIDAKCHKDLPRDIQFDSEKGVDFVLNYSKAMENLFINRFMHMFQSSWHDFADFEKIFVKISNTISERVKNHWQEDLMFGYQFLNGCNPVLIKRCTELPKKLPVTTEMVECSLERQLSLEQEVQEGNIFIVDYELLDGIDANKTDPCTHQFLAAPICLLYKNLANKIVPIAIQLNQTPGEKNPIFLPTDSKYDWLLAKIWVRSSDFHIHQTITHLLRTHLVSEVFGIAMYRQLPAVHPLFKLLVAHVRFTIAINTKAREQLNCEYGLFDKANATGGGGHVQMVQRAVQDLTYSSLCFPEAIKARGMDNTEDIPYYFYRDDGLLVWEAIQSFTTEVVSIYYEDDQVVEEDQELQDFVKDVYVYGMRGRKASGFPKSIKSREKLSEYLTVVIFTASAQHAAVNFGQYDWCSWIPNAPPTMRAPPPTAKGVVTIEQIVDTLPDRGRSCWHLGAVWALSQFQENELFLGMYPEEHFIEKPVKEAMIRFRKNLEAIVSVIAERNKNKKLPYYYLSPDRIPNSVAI
Protocol: Δ^5 -Lipoxygenase inhibition was measured by following the conversion of ^14 C-arachidonic acid to ^14 C-5-HETE, using rat basophil leukemia cells (RBL-1 cells) as the enzyme source. These cells were maintained in stationary stock cultures and grown in spinner cultures prior to isolation by centrifugation at 4° C. at 1,500×g for 10 minutes. The cells were washed three times at 4° C. with 0.05M Tris HCl (ph 7.2) containing 1 mM EDTA, 14 μM indomethacin and 0.9% NaCl. They were then homogenized at 0°-4° C. using a glass/glass homogenizer in 0.05M Tris-HCl (pH 7.2) containing 1 mM EDTA and 14 μM indomethacin. The homogenate was then centrifuged at 49,300×g for 20 minutes (0°-4° C.) and the resulting supernatant frozen in small aliquots in a dry ice/acetone bath prior to storage at -80° C. Under these conditions, the enzyme was stable to freezing and thawing and to preincubation for 10 minutes at 30° C.
For enzyme assay, 100-200 μl of enzyme was incubated in the presence and absence of test compound (prepared in DMSO) for 10 minutes at 30° C. in 0.05M Tris-HCl buffer (pH 7.2) containing 1 mM glutathione, 2 mM CaCl2, 14 μM indomethacin and 0.25 and 0.5 mM EDTA (final volume 400 μl). The final DMSO concentration in these assays was 4%. The assay was initiated by the addition of 100 μl ^14 C-arachidonic acid (58 mCi/mmole) and incubations were carried out for 10 minutes at 37° C. in a shaking water bath. The reactions were stopped by the simultaneous addition of 4.0 ml of diethylether and 100 μl of 1.0 m citric acid, while the tubes were vigorously vortexed. The ^14 C-5-HETE generated by the enzyme was extracted into the acidified ether layer which was separated from the aqueous layer by freezing the assay tubes in a dry ice/acetone bath prior to decanting the liquid ether layer. The ether layer was evaporated to dryness under N2, the residue dissolved in 65 μl chloroform:methanol (2:1 v/v), prior to separating ^14 C-5-HETE from other ^14 C-labeled compounds on silica gel impregnated glass fiber TLC plates utilizing an elution solvent of isoctane:methylethylketone:acetic acid (100:9:1 v/v). ^14 C-5-HETE was identified by its co-chromatography with a chemically synthesized standard. The radioactive peaks of the chromatogram were cut out and the radioactivity was quantitated by liquid scintillation counting. The amount of 5-HETE obtained per sample was expressed as the percent of total and was calculated in the basis of: [formula] in order to evaluate the effect of the test compounds, the mean percent inhibition of ^14 C-5-HETE production was calculated. The IC50 for a drug was determined from a linear regression analysis of a plot of the mean percent inhibition vs drug concentration.

[2] = target: T3, PAF receptor (dog platelets) (Canis lupus familiaris, UniProt A0A8I3NSH0); assay: PAF Radioreceptor Binding Assay; details: 3H-PAF
T3 construct: followed by 2×10^7 dog platelets; from tissue; host or cells: dog platelets, washed, intact
T3 sequence (A0A8I3NSH0 1-343): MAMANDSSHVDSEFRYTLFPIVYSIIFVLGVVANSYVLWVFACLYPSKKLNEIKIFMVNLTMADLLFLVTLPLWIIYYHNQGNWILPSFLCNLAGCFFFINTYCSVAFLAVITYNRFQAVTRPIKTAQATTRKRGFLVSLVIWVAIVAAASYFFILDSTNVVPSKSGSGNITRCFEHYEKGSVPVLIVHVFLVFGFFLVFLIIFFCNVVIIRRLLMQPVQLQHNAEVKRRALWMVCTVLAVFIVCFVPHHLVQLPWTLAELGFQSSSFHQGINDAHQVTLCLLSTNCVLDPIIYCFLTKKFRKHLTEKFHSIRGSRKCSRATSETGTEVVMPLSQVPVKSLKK
Protocol: Platelet rich plasma is prepared by centrifugation of citrate-treated dog blood. Acidification to pH 6.5 with 0.15M citric acid and centrifugation for 10 minutes at 1000 g yields a platelet pellet which is then washed by resuspension in EDTA-Phosphate Buffered Saline (PBS) and recentrifuged. The washed platelet preparation is adjusted to 2×10^7 platelets/50 μl in 0.1% BSA-PBS.
To a […] microfuge tube containing 50 μl silicone oil (specific gravity 1.023) is added buffer, PAF standard or analog, or an extract to bring the aqueous volume to 150 μl. 50 μl of ^3 H-PAF (10,000 cpm, 45 Ci/mM) is added followed by 2×10^7 dog platelets. After mixing, incubating for 10 minutes at room temperature, and centrifuging for 1 minute in a Beckman Microfuge B (8000 g), the pellet is removed by clipping off the tip of the tube, solubilizing the platelets with 200 μl of 50% methanol, and counting in 10 ml of Aquasol. […] Results obtained with representative compounds of the present invention in this assay are summarized hereinafter in Table I.

[3] = tested on: LTE4-induced increase of vascular permeability in rat skin; assay: Rat Skin Permeability, In Vivo (LTE4-induced wheal); details: LTE4 intradermal
[4] = tested on: LTD4-induced blood pressure changes and arrhythmias; assay: Leukotriene D4 (LTD4) Induced Arrhythmias in Conscious Guinea Pigs; type: in vivo, guinea pig; details: 10 mg/kg iv, 5 minutes before LTD4; for Peak Hypertension (Δmm Hg): saline control 30 ± 4; for % Arrhythmias: saline control 33 ± 4; for Peak Hypotension (Δmm Hg): saline control -45 ± 4
Protocol: Male Hartley guinea pigs are anesthetized with sodium pentobarbital and prepared for monitoring direct blood pressure and injecting drugs intravenously by catheterizing the right carotid artery and right jugular vein. Blood pressure, heart rate, and Lead II ECG are monitored in the conscious animal 24 hours later.
Intravenous administration of LTD4 (2.5 μg/kg) is associated with an increase in blood pressure lasting approximately 1-2 minutes followed by a decrease lasting approximately 5-15 minutes. Abnormal beats consisting of premature ventricular contractions, ST elevation or depression, atrioventricular conduction block, or dissociated p waves begin during the rise in blood pressure; the peak effect occurs approximately 40 seconds after LTD4. The percent of abnormal beats was quantitated by determining the number present during the first 2 minutes after injection and calculating the percent increase above the control level. During the hypotensive response, the animal usually collapses during the 2nd or 3rd minute after LTD4 and regains posture approximately 10 minutes after LTD4.
Test compounds were administered 5 minutes before the LTD4 challenge and effects on blood pressure and arrhythmias were monitored.

CC(C)c1ccc2ncn(/C=C/C(=O)N(C)CCCCc3cccnc3)c(=O)c2c1
inhibition at 0.1 µM (TXA2 synthase): 48% | IC50 [1]: 10 µM

CC(C)c1ccc2ncn(/C=C/C(=O)NCCCCCCNc3ccccn3)c(=O)c2c1
IC50 [1]: 5 µM | inhibition at 10 µM (Δ^5 -Lipoxygenase): 25%

CC(C)c1cc(C(C)C)c2ncn(/C=C/C(=O)NCCCCc3cccnc3)c(=O)c2c1
inhibition at 0.1 µM (TXA2 synthase): 51% | IC50 [1]: 1 µM

CC(C)c1ccc2ncn(/C=C/C(=O)NCCCCOc3cccnc3)c(=O)c2c1 [drawing 14]
inhibition at 0.1 µM (TXA2 synthase): 70% | IC50 [2]: > 1 µM | inhibition at 10 µM ([1]; at 10^-5 M): 44%

CC(C)c1ccc2ncn(/C=C/C(=O)NCCNCc3cccnc3)c(=O)c2c1
inhibition at 1 µM (TXA2 synthase; at 10^-6 M): 33% | IC50 [1]: 8 µM

CC(C)c1ccc2ncn(/C=C/C(=O)NCCSc3ccncc3)c(=O)c2c1
inhibition at 0.1 µM (TXA2 synthase): 31% | IC50 [1]: 10 µM | inhibition at 10 µM (Δ^5 -Lipoxygenase): 56%

CC(C)c1ccc2ncn(/C=C/C(=O)NCCCCn3ccnc3)c(=O)c2c1 [Compound C, N-[4-(1H-imidazol-1-yl)butyl]-(E)-3-[6-(1-methylethyl)-4-oxo-4H quinazolin-3-yl]-2-propenamide]
ED50 ([3]; iv, 0.5 h, i.v., read-out: I.D.50, skin wheal, i.v.): 17 mg/kg | ED50 ([3]; po, read-out: I.D.50, skin wheal, oral): 96 mg/kg

CC(C)c1ccc2ncn(/C=C/C(=O)NCCCNc3cccnc3)c(=O)c2c1
IC50 [2]: > 1 µM | IC50 [1]: 5 µM | inhibition at 10 µM (Δ^5 -Lipoxygenase): 10%

CC(C)c1ccc2ncn(/C=C/C(=O)NCCCCCCc3cccnc3)c(=O)c2c1
IC50 [2]: > 1 µM

CC(C)c1ccc2ncn(/C=C/C(=O)NCCCCn3ccnc3)c(=O)c2c1 [drawing 31]
Peak Hypertension (Δmm Hg) [4]: 10 ± 0 Δmm Hg | % Arrhythmias [4]: 0 ± 3% | Peak Hypotension (Δmm Hg) [4]: -45 ± 8 Δmm Hg

CC(C)c1ccc2ncn(/C=C/C(=O)NCCCCOc3cccnc3)c(=O)c2c1 [drawing 30]
Peak Hypertension (Δmm Hg) [4]: 19 ± 7 Δmm Hg | % Arrhythmias [4]: 0 ± 0% | Peak Hypotension (Δmm Hg) [4]: -42 ± 9 Δmm Hg

CC(C)c1ccc2ncn(/C=C/C(=O)NCCCCc3cccnc3)c(=O)c2c1 [drawing 29]
Peak Hypertension (Δmm Hg) [4]: 21 ± 6 Δmm Hg | % Arrhythmias [4]: 1 ± 1% | Peak Hypotension (Δmm Hg) [4]: -45 ± 4 Δmm Hg
